The structures appear in SMILES notation. Structures can show the parent of a compound that is named as a salt.

Holding throughout (design): cell survival: unit of the concentration uncertain
In test [1] the test system is K562 expressing BCR-ABL T315I. Description: Cytotoxicity assay, K562-T315I cells. Format: cell-based, human. The protocol: (§1) Cytotoxicity assay: CML patient derived cell lines K562 expressing BCR-ABL T315I, Ph+ALL cell line BV173-T315I, and mouse cell line Ba/F3 T315I were used for cytotoxicity testing. All these cell lines express T315I mutant of BCR-ABL. BV-173-T315I is also a model for blast crisis, the terminal stage in CML. Cell lines were cultured in Iscove's Modified Dulbecco's Medium (IMDM) containing L-glutamine and 25 mM Hepes. The cells were maintained at 37° C. in a humidified CO2 incubator. For cytotoxicity measurement 5000-8000 cells were plated into 96 well plates in quadruplicates. Drugs were dissolved in DMSO and cells were treated in increasing doses ranging from 1 to 10^7 fold. Control cells were treated with respective amounts of DMSO. Cells were incubated for 72 hours and, at the end of the incubation point cell, viability was determined. For this purpose, 25 μl of the cell culture from the 96 well plates were transferred to Ultracruz® black bottom 96 well plates (Santa Cruz Biotechnology) and 25 μl of a live cell detecting fluorescent reagent (Cellular Technology Limited (“CTL”)) was added to the cells. The cells and the CTL reagent was mixed thoroughly and centrifuged for 5 min, at the standard g levels normally used to accelerate settling of the cells to the bottom of the culture medium container without damaging the living cells, and the fluorescence was detected at 405 nm excitation using a CTL scanner. Viable cells will fluoresce green and the machine automatically scans and counts the number of viable cells from each well. The percentage of viable cells in drug treated samples relative to the number of viable cells in DMSO treated samples was then calculated. The data obtained were analyzed using Prism nonlinear regression software (Graphpad Software) for the curve fitting and determination of IC50 values.

Test [2] deals with mouse cell line Ba/F3 T315I. The test is described as follows: Cytotoxicity assay, Ba/F3-T315I cells. Format: cell-based. As to conditions: for cancer cell survival rate compared to the DMSO control: 72 hours. The protocol:
as §1

Test [3] deals with Ph+ALL cell line BV173-T315I. The test is described as follows: Cytotoxicity assay, BV173-T315I cells. The test is classed as cell-based. The protocol: as §1
Setting [4] is: about 10^−6 M to about 10^−5 M, 72 hours.

As for `N#Cc1cc2cc3c(cc2nc1SCC(=O)Nc1ccccc1C(N)=O)OCCO3` [AP-R230, 2-[2-(8-cyano-2H,3H-[1,4]dioxino[2,3-g]quinolin-7-ylsulfanyl)acetamido]benzamide], the “cancer cell survival rate compared to the DMSO control” value in test [1] (about 5 μM to about 10 μM, 72 hours) is on record as “less than 4%”; in test [2] (about 5 μM to about 10 μM) it was “less than 4%”.
Turning to `Cc1cc(C(=O)Nc2ccc(CN3CCN(C)CC3)cc2)ccc1NC(=O)CSc1nc2cc3c(cc2cc1C#N)OCCO3` [AP-R234, 4-[2-(8-cyano-2H,3H-[1,4]dioxino[2,3-g]quinolin-7-ylsulfanyl)acetamido]-3-methyl-N-4-[(4-methylpiperazin-1-yl)methyl]phenylbenzamide hydrochloride], the “cancer cell survival rate compared to the DMSO control” value in test [1] (dosage printed as 'about M', 72 hours) is reported as “less than 4%”; in test [2] (dosage printed as 'about M'), “less than 4%”.
Turning to `Cc1ccc(CN2CCCC2)cc1NC(=O)CSc1nc2cc3c(cc2cc1C#N)OCCO3` [AP-R235, 2-[(8-cyano-2,3-dihydro-[1,4]dioxino[2,3-g]quinolin-7-yl)sulfanyl]-N-[2-methyl-5-(pyrrolidin-1-ylmethyl)phenyl]acetamide hydrochloride], the “cancer cell survival rate compared to the DMSO control” value is recorded as “less than 10%” in test [1] (about 10 μM, 72 hours) and “less than 2%” in test [2] (about 10 μM).
For the molecule `Cc1cccc(Cl)c1NC(=O)CSc1nc2cc3c(cc2cc1C#N)OCCO3` [AP-R342, N-(2-chloro-6-methylphenyl)-2-({8-cyano-2H,3H-[1,4]dioxino[2,3-g]quinolin-7-yl}sulfanyl)acetamide], the “cancer cell survival rate compared to the DMSO control” value in test [1] (setting [4]), in test [2] (about 10^−6 M to about 10^−5 M) and in test [3] (setting [4]) was “less than 7%” throughout.
Turning to `Cc1cc(F)ccc1NC(=O)CSc1nc2cc3c(cc2cc1C#N)OCCO3` [AP-R343, 2-({8-cyano-2H,3H-[1,4]dioxino[2,3-g]quinolin-7-yl}sulfanyl)-N-(4-fluoro-2-methylphenyl)acetamide], the “cancer cell survival rate compared to the DMSO control” value in test [1] (setting [4]), in test [2] (about 10^−6 M to about 10^−5 M) and in test [3] (setting [4]) was “less than 5%” in each case.
Usually IC50 stands for the concentration that inhibits the measured activity by half. As to `Cc1cc(CN2CCCC2)ccc1NC(=O)CSc1nc2cc3c(cc2cc1C#N)OCCO3` [AP-R352, 2-((8-cyano-2,3-dihydro-[1,4]dioxino[2,3-g]quinolin-7-yl)thio)-N-(2-methyl-4-(pyrrolidin-1-ylmethyl)phenyl)acetamide dihydrochloride], the IC50 in test [1] (Homo sapiens, 72 hours, read-out: IC50 for cell killing) turned out to be 1090 nM; in test [2] (Mus musculus, BaF3, 72 hours, read-out: IC50 for cell killing) it was 800 nM; in test [3] (72 hours, read-out: IC50 for cell killing), 540 nM.
`Cc1cc(NC(=O)CSc2nc3cc4c(cc3cc2C#N)OCCO4)n(C)n1` [AP-R357, 2-((8-cyano-2,3-dihydro-[1,4]dioxino[2,3-g]quinolin-7-yl)thio)-N-(1,3-dimethyl-1H-pyrazol-5-yl)acetamide]: the “cancer cell survival rate compared to the DMSO control” value in test [1] (about 30 μM, 72 hours) is listed as “less than 20%”; in test [2] (about 30 μM) it was “less than 7%”; in test [3] (about 30 μM, 72 hours) it was “less than 6%”.
`Cc1nn(C)cc1NC(=O)CSc1nc2cc3c(cc2cc1C#N)OCCO3` [AP-R358, 2-((8-cyano-2,3-dihydro-[1,4]dioxino[2,3-g]quinolin-7-yl)thio)-N-(1,3-dimethyl-1H-pyrazol-4-yl)acetamide]: the cell survival result is “above 90%” in test [1] (at 0.625 (unit uncertain)); “about 20%” in test [1] (at 10 (unit uncertain)); “above 90%” in test [2] (at 0.625 (unit uncertain)); “about 20%” in test [2] (at 10 (unit uncertain)); “above 90%” in test [3] (at 0.625 (unit uncertain)); “about 20%” in test [3] (at 10 (unit uncertain)).

(Values after patent US12157742B2, “Kinase inhibitors exhibiting anti-cancer activity and their method of use” (ALLCRON PHARMA INC., priority 2018, dated 2024).)
